Values quoted from earlier work in patent US10898503B2, “Cleavable drug conjugates, compositions thereof and methods of use” (priority 2013, dated 2021).
Where two headings read alike, the source gives them in different places.

Columns and labels:
[1] = in vivo
[2] = patients

enfuvirtide
half-life [1]: four

COc1cccc2c1C(=O)c1c(O)c3c(c(O)c1C2=O)C[C@@](O)(C(=O)CO)C[C@@H]3O[C@H]1C[C@H](N)[C@H](O)[C@H](C)O1 [Doxorubicin]
chance of developing cardiomyopathy ([2]; cumulative dose of 300 mg/m^2): 1-2% | chance of developing cardiomyopathy ([2]; cumulative dose of 400 mg/m^2): 3-5% | chance of developing cardiomyopathy ([2]; cumulative dose of 450 mg/m^2): 5 to 8% | chance of developing cardiomyopathy ([2]; cumulative dose of 500 mg/m^2): 6-20%
